The values that follow come from BindingDB's records for doi:10.1074/jbc.M110.109017 (The University of Kansas, 2010).

For orientation: pKd means −log10 of the Kd, conventionally taken in molar units. High values mean a small Kd, low ones a large Kd.

pKd: −log10 of the molar value.

This experiment deals with Cytochrome P450 2E1 (Homo sapiens, UniProt P05181). In words: Binding Assay. An excerpt: Binding assay using CYP2E1.
Chain of Cytochrome P450 2E1 (P05181 whole entry): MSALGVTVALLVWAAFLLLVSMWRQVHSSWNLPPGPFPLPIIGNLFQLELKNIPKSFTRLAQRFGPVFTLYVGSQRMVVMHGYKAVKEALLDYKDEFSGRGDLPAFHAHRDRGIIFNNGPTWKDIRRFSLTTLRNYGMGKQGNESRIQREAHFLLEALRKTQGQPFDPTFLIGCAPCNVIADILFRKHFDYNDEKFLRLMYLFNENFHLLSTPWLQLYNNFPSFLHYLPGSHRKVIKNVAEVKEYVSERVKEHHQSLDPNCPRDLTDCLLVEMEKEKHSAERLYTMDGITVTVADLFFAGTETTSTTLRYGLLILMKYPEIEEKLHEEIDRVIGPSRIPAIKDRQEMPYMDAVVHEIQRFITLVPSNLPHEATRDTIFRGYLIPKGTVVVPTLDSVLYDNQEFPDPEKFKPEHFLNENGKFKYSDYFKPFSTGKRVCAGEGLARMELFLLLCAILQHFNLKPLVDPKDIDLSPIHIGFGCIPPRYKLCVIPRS
In turn, `O=C(O)CCCCCCCn1ccnc1` had a negative-log Kd (pKd) of 4.68.
In turn, `O=C(O)CCCCCCCCCn1ccnc1` [Omega-imidazolyl decanoic acid] had a negative logarithm of the Kd (pKd) of 5.05. Against the preceding compound, the pKd is 0.37 log units higher.
`O=C(O)CCCCCCCCCCCn1ccnc1` [Omega-imidazolyl dodecanoic acid]: the negative-log Kd (pKd) is 5.74.
